Measured values published in patent US9028845B2, “Chimeric immunomodulatory compounds and methods of using the same-IV” (Dynavax Technologies Corporation, priority 2001, dated 2015).

Experiments:
[1] = test system: mouse splenocytes; assay: Mouse splenocyte cytokine secretion (IL-6, IL-12, IFN by ELISA); assay type: cell-based, BALB/c mice; set-up: IFN: unit not given beside the values; conditions: 24 h
Experimental: Polynucleotides and chimeric compounds were tested for immunostimulatory activity on mouse splenocytes. Immunostimulation was assessed by measurement of cytokine secretion into the culture media. Cytokine levels in the culture supernatant were determined by enzyme-linked immunosorbent assay (ELISA) tests.
Cells were isolated and prepared using standard techniques. Spleens of 8 to 20 week-old BALB/c mice were harvested and the splenocytes isolated using standard teasing and treatment with ACK lysing buffer from BioWhittaker, Inc. Four spleens were pooled in this experiment. Isolated cells were washed in RPMI 1640 media supplemented with 2% heat-inactivated fetal calf serum (FCS), 50 μM 2-mercaptoethanol, 1% penicillin-streptomycin, and 2 mM L-glutamine and resuspended at approximately […] in 10% FCS/RPMI (RPMI 1640 media with 10% heat-inactivated FCS, 50 μM 2-mercaptoethanol, 1% penicillin-streptomycin, and 2 mM L-glutamine).
Cell cultures were set up in triplicate with approximately 7×10^5 cells/well in a 96-well flat microtiter plate in 100 μl 10% FCS/RPMI with the cells allowed to rest for at lest 1 hour after plating. The indicated test compounds were incubated (at the indicated concentrations) for 24 hours at 37° C. Cell supernatants were harvested and frozen at −80° C. Cytokine production by the cells was determined by ELISAs, as shown in 19.

[2] = test system: CD19+ B cells; assay: Human B cell proliferation assay (3H-thymidine incorporation); conditions: B cells, 2 μg/ml, Experiment B
[3] = test system: human PBMCs; assay: Human PBMC cytokine response assay (IFN-γ and IFN-α in cell-free medium by ELISA), with or without cPLGA; assay type: cell-based;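 as to IFN-α (pg/ml) mean: 20 µg/mL compound for 24 hours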;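 as to IFN-γ (pg/ml) mean: 20 µg/mL compound for 24 hours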
[4] = Donor 5, 20 μg/ml (mixtures: 20 μg/ml total), 24 h
[5] = Donor 6, 20 μg/ml (mixtures: 20 μg/ml total), 24 h
[6] = Table 25, mean of donors 28250-28253
[7] = donor 28066, 20 ug/ml, 24 h, + PLGA = premixed with 100 μg/ml cPLGA
[8] = donor 28067, 20 ug/ml, 24 h, + PLGA = premixed with 100 μg/ml cPLGA
[9] = donor 28068, 20 ug/ml, 24 h, + PLGA = premixed with 100 μg/ml cPLGA
[10] = mean of Donors 1-2, 20 μg/ml, 24 h
[11] = mean of Donors 5-6, 20 μg/ml (mixtures: 20 μg/ml total), 24 h
[12] = mean of Donors 7-8, 20 μg/ml, 24 h
[13] = mean of donors 28065-28068, 20 ug/ml, 24 h, + PLGA = premixed with 100 μg/ml cPLGA

## 5′-TCGTCG-3′-HEG-5′-ACGTTCG-3′-HEG-5′-AGATGAT-3′ [Compound C-10]
[1]; dose 0.1 μg/ml
  IFN: 9
  IL-6: 9
  IL-12: 122
[1]; dose 1.0 μg/ml
  IFN: 104
  IL-6: 1761
  IL-12: 1738
[1]; dose 5.0 μg/ml
  IFN: 199
  IL-6: 3342
  IL-12: 2329
[2]; donor 121
  cpm1: 15142 cpm
  cpm2: 14136 cpm
  cpm3: 16158 cpm
[2]; donor 121 mean
  mean cpm: 15145 cpm
[2]; donor 194
  cpm1: 7480 cpm
  cpm2: 5458 cpm
  cpm3: 5943 cpm
[2]; donor 194 mean
  mean cpm: 6294 cpm
[2]; mean of donors 121 and 194
  mean of both: 10720 cpm
[3]; Donor 1, 20 μg/ml, 24 h
  IFN-α (pg/ml) Donor 1: 1662 pg/mL
  IFN-γ (pg/ml) Donor 1: 1595 pg/mL
[3]; Donor 2, 20 μg/ml, 24 h
  IFN-α (pg/ml) Donor 2: 50 pg/mL
  IFN-γ (pg/ml) Donor 2: 952 pg/mL
[3]; [4]
  IFN-α (pg/ml) Donor 5: 91 pg/mL
  IFN-γ (pg/ml) Donor 5: 102 pg/mL
[3]; [5]
  IFN-α (pg/ml) Donor 6: 1700 pg/mL
  IFN-γ (pg/ml) Donor 6: 806 pg/mL
[3]; Donor 7, 20 μg/ml, 24 h
  IFN-α (pg/ml) Donor 7: 46 pg/mL
  IFN-γ (pg/ml) Donor 7: 23 pg/mL
[3]; Donor 8, 20 μg/ml, 24 h
  IFN-α (pg/ml) Donor 8: 539 pg/mL
  IFN-γ (pg/ml) Donor 8: 198 pg/mL
[3]; Table 9, donor 28089
  IFN-α: 17 pg/mL
  IFN-γ: 35 pg/mL
[3]; Table 9, donor 28090
  IFN-α: 61 pg/mL
  IFN-γ: 44 pg/mL
[3]; Table 9, donor 28098
  IFN-α: 187 pg/mL
  IFN-γ: 174 pg/mL
[3]; Table 9, donor 28099
  IFN-α: 304 pg/mL
  IFN-γ: 140 pg/mL
[3]; Table 9, mean of donors
  IFN-α mean: 142 pg/mL
  IFN-γ mean: 98 pg/mL
[3]; Table 25, donor 28250
  IFN-a: 16 pg/mL
[3]; Table 25, donor 28250, polynucleotides/spacers at amounts equivalent to the CIC, spacers alone 9 uM
  IFN-g: 337 pg/mL
[3]; Table 25, donor 28251
  IFN-a: 23 pg/mL
  IFN-g: 163 pg/mL
[3]; Table 25, donor 28252
  IFN-a: 25 pg/mL
  IFN-g: 776 pg/mL
[3]; Table 25, donor 28253
  IFN-a: 124 pg/mL
  IFN-g: 898 pg/mL
[3]; [6]
  IFN-a mean: 47 pg/mL
  IFN-g mean: 544 pg/mL
[3]; donor 28065 (high background), 20 ug/ml, 24 h, + PLGA = premixed with 100 μg/ml cPLGA, 1000 = outside assay limits
  IFN-γ (pg/ml) 28065: 1000 pg/mL
[3]; donor 28065, 20 ug/ml, 24 h, + PLGA = premixed with 100 μg/ml cPLGA
  IFN-α (pg/ml) 28065: 116 pg/mL
[3]; [7]
  IFN-α (pg/ml) 28066: 6 pg/mL
  IFN-γ (pg/ml) 28066: 9 pg/mL
[3]; [8]
  IFN-α (pg/ml) 28067: 107 pg/mL
  IFN-γ (pg/ml) 28067: 51 pg/mL
[3]; [9]
  IFN-α (pg/ml) 28068: 340 pg/mL
  IFN-γ (pg/ml) 28068: 559 pg/mL
[3]; [10]
  IFN-α (pg/ml) mean: 856 pg/mL
  IFN-γ (pg/ml) mean: 1273 pg/mL
[3]; [11]
  IFN-α (pg/ml) mean: 896 pg/mL
  IFN-γ (pg/ml) mean: 454 pg/mL
[3]; [12]
  IFN-α (pg/ml) mean: 293 pg/mL
  IFN-γ (pg/ml) mean: 111 pg/mL
[3]; [13]
  IFN-α (pg/ml) mean: 142 pg/mL
  IFN-γ (pg/ml) mean: 405 pg/mL
[3]; used alone (no cPLGA)
  immunomodulatory activity (IFN-γ / IFN-α secretion), in words: did have immunomodulatory activity
